Laboratory results: PubChem BioAssay (NCI)
“And” between values parts separate entries of the source, which are not always exact repeats. Equal values may be shown once.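 Results reflect a 48-hour exposure of cells in 96-well plates to compound at five concentrations. GI50 is the concentration that inhibits growth by half. TGI is the concentration that stops growth completely.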

Tests used:
Assay in all cases: inhibition of tumour cell growth, NCI panel, 48 h
MDA-MB-435 = system: MDA-MB-435
MCF7 breast = system: MCF7 breast
MDA-N = system: MDA-N
DMS 273 small cell lung = system: DMS 273 small cell lung
XF 498 CNS = system: XF 498 CNS
M19-MEL melanoma = system: M19-MEL melanoma
RXF-631 renal = system: RXF-631 renal

Structure (SMILES)	GI50 (MDA-MB-435)	TGI (MDA-MB-435)	GI50 (MCF7 breast)	TGI (MCF7 breast)	TGI (MDA-N)	TGI (DMS 273 small cell lung)	TGI (XF 498 CNS)	TGI (M19-MEL melanoma)	TGI (RXF-631 renal)
CC[C@H](C)[C@H](NC(=O)[C@H]1CCCCN1C)C(=O)N(C)[C@H](C[C@@H](OC(C)=O)c1cccc(C(=O)N[C@@H](Cc2ccccc2)C[C@H](C)C(=O)OC)n1)C(C)C	0.00028 µM	0.00143 µM	0.000334 µM and 0.0025 µM	> 25 µM					
CCOC(=O)Cc1c(C)c2cc(C(=O)c3ccccc3)c(O)cc2oc1=O		> 100 µM		63.9 µM	> 100 µM				
COc1cc(/C=C2\CC3C4CC=C5C[C@@H](OC(C)=O)CC[C@]5(C)C4CC[C@]3(C)C2=O)ccc1OCCN1CCCCC1 (stereo partly specified)	1.93 µM	4.28 µM	2.07 µM	5.53 µM					
CC(C)(O)C(O)COc1c2c(cc3oc(=O)ccc13)OCO2 (stereo unspecified)						> 100 µM	> 100 µM	> 100 µM	
CC1Cc2c(Cl)ncnc2N(C)c2ccc(Cl)cc21 (stereo unspecified)	0.329 µM	1.85 µM							
O=C(C(=O)c1cc2ccccc2[nH]1)c1cc2ccccc2[nH]1						> 347 µM	336 µM	> 347 µM	> 347 µM
CN(Cc1ccccc1)Cn1ccnc1		> 100 µM		> 100 µM	> 100 µM				
CN[C@H]1CN(c2ccc3c(=O)c(C(=O)O)cn(-c4nccs4)c3n2)C[C@@H]1OC	1.29 µM	3.51 µM	0.358 µM	5.07 µM					
O=C(CN(/C=C/C(=O)C(F)(F)F)c1ccc(Cl)cc1)c1ccc(Cl)cc1	7.83 µM	29 µM	5.15 µM	29.8 µM					
COc1cc(/C=C2\C(=O)N(C(=O)Cc3ccccc3)N=C2C)cc(OC)c1OC						> 100 µM	> 100 µM	> 100 µM	
Nc1nc(/C=C\c2ccc([N+](=O)[O-])s2)nc(N2CCN(c3ccccc3)CC2)n1	19.2 µM	43.6 µM	14.8 µM	49.4 µM					
Cc1ccc(O)c(NC(=O)c2cccc(Nc3ccnc(C(F)(F)F)c3)c2)c1	6.65 µM	25.9 µM	4.21 µM	26.5 µM					
COC1CCC(OS(C)(=O)=O)C(CO)O1 (stereo unspecified)							> 100 µM	> 100 µM	
O=C(/C=C\c1ccccc1O)c1ccc(O)cc1O						> 100 µM		> 100 µM	> 100 µM
CC1(C)OC2C(CCP(=O)(O)O)OC(c3nc(C(N)=O)cs3)C2O1 (stereo unspecified)						> 100 µM		> 100 µM	> 100 µM
C=CN(C(=O)N1CCN(c2cc3c(cc2F)c(=O)c(C(=O)O)cn3C2CC2)CC1)c1nc(-c2ccc(OC)cc2)cs1			3.36 µM	> 100 µM					
COc1cc2c(cc1OC(C)C)[C@H](c1ccc(Cl)cc1)N(c1ccc(N(C)CC3CCC(N4CCN(C)C(=O)C4)CC3)cc1)C(=O)C2 (stereo partly specified)	2.47 µM	6.93 µM	0.271 µM	3.61 µM					
CSc1ccc2c(cc1=O)[C@@H](NC(=O)c1cccc([N+](=O)[O-])c1)CCc1cc(O)c(O)c(O)c1-2						> 100 µM		49.4 µM	> 100 µM
O=C1C=C(Nc2ccc(Cl)cc2Cl)c2ccccc2C1=O						79.5 µM		26.3 µM	> 100 µM
OCC1C(OCc2ccccc2)C(OCc2ccccc2)C(OCc2ccccc2)CN1Cc1ccccc1 (stereo unspecified)		> 100 µM		43.9 µM	> 100 µM				

Structure (SMILES)	GI50 (MDA-MB-435)	TGI (MDA-MB-435)	GI50 (MCF7 breast)	TGI (MCF7 breast)	TGI (MDA-N)	TGI (DMS 273 small cell lung)	TGI (XF 498 CNS)	TGI (M19-MEL melanoma)	TGI (RXF-631 renal)
Clc1c(Cl)[n+](Cc2ccc3ccccc3c2)cn1Cc1ccc2ccccc2c1	1.24 µM	2.64 µM	1.32 µM	2.88 µM					
CNC(=O)c1c(C)oc2cc(Oc3ncnc4cc(OC)c(OC)cc34)ccc12	> 100 µM	> 100 µM	> 100 µM	> 100 µM					
Cc1c(-c2cnccn2)ssc1=S		> 100 µM		> 100 µM	> 100 µM				
O=c1oc2ccc(I)cc2c(=O)n1-c1ccc(Br)cc1F	0.938 µM	6.42 µM	1.34 µM	9.22 µM					
Cc1ccc(C)c(N2C(=O)C(=O)C(c3nc4ccccc4s3)/C(=N/N)C2=O)c1 (stereo unspecified)						> 100 µM	> 100 µM	> 52.7 µM	
CCc1nc(N)nc(N)c1-c1ccc(Cl)c([N+](=O)[O-])c1		> 100 µM		> 89.7 µM	> 100 µM				
COc1ccc2c(c1)C(=O)c1c-2n(CCCN(C)C)c(=O)c2ccccc12	0.557 µM	3.27 µM	0.0295 µM	2.31 µM					
NC(=O)NNC(=O)CCn1[nH]c(=O)c(Cl)c(Cl)c1=O						> 100 µM		> 100 µM	> 100 µM
C/C(=N\N=C(N)N)C(CN1CCCCC1)C(c1ccccc1)c1c(O)c2ccccc2oc1=O (stereo unspecified)							> 100 µM	> 100 µM	> 100 µM
CCc1cccc(C(C)C)c1NC(=O)C(=O)C1C(=O)Nc2ccccc2S1=O (stereo unspecified)		> 100 µM		> 100 µM	> 100 µM				
Cc1cnc2ccc(C)c([N+](=O)[O-])c2c1NCCCN(C)C						> 100 µM	> 100 µM	> 100 µM	
COc1ccc(/C=C\c2cc(OC)c(OC)c(OC)c2)cc1OCC(=O)Nc1nc2ccc(F)cc2s1	0.335 µM	> 100 µM	2.3 µM	> 100 µM					
O=c1c2ccccc2sc2c(NCCCNCCO)nc3ccccc3c12	1.77 µM	3.25 µM							
O=C(O)CCNCC(=O)O		> 100 µM		> 100 µM	> 100 µM				
CCOC(=O)C1=CCCC[C@H]1S(=O)(=O)Nc1ccc(F)cc1Cl	21.1 µM	69.9 µM	19.9 µM	> 100 µM					
C=C(CCCCC)CN1CCCC1C(C)=O (stereo unspecified)						53.1 µM	41.7 µM	> 100 µM	
COc1cc(C2C(Cl)C(=O)N2NC(=O)Cc2ccccc2)cc(Br)c1O (stereo unspecified)						> 100 µM	> 100 µM	> 100 µM	
COc1ccc(C2(Cl)c3ccccc3N(c3ccccc3)c3ccccc32)cc1	0.242 µM	1.56 µM	0.182 µM	1.9 µM					
CCC[C@H]1O[C@@H]2CC(=O)O[C@@H]2C2=C1C(=O)C=CC2=O						19.5 µM		41.7 µM	
COc1c/c(=C2\C=c3ccccc3=N2)[nH]/c1=C\c1[nH]c(C)cc1C	0.0136 µM	0.0951 µM	0.0464 µM	> 100 µM					
